# In PMC12256496, “An advancement in developmental and reproductive toxicity (DART) risk assessment: evaluation of a bioactivity and exposure-based NAM toolbox” (Frontiers in Toxicology, 2025):
# Read-outs that look alike come from different tables or passages of the source.
# Legend:
# [1] = Human in vivo PK data: concentration-dose ratio (CDR) and toxicokinetic variability factor (TKVF); parameters: 95% percentile (Conc-dose-ratio): unit not given here;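 further: Literature-pooled human in vivo PK data, plasma, serum or cord blood concentrations per daily dose, weighted by study population size across non-pregnant, pregnant and fetal groups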
# [2] = system: human induced pluripotent stem cells (hiPSCs); experiment: ReproTracker (cardiomyocyte, hepatocyte-like and neuronal differentiation); type: cell-based
# Text: The ReproTracker assay assesses chemical perturbation of early embryonic development by evaluating key events of cardiomyocyte, hepatocyte-like (HLC) and neuronal cell differentiation using human induced pluripotent stem cells (hiPSCs). The ReproTracker protocol is described in ([Jamalpoor et al., 2022]; [Moreau et al., 2023]) and was followed introducing a few modifications to allow for concentration response analysis. […] Lineage specific differentiation was then investigated by assessment of gene expression patterns of cell-specific biomarkers, induced cytotoxicity (AlamarBlue cell viability assay) and by morphological profiling. Gene biomarkers quantified by multiplex qRT-PCR included BMP4 and MYH6 for cardiomyocytes, FOXA2 and AFP for hepatocyte-like cells, PAX6 and NESTIN for neural rosette lineage. […] Saccharin was used as a negative control substance for all 3 lineages. For dose dependent qRT-PCR analysis quality control filtered Ct values were normalised using an adaptation of the Pfaffl ([Pfaffl, 2001]) method to calculate ΔCt values with respect to biomarker and housekeeping gene amplification efficiencies. […] In addition, Alamar blue read outs were taken from the differentiating cells at day 7 and the end of each differentiation to measure cell viability in a dose dependent way. The AlamarBlue readout was normalised and transformed using a Bayesian hierarchical approach The Bayesian model assumes measurement between rows on the treatment plates are correlated but allows for differences in average sample response between rows. […] The final cell viability PODs were those at time point end (day 14 for cardiomyocytes, day 21 for HCLs and day 13 for neural) and had CDS above or equal to 0.5. Both the gene biomarker PODs and cell viability/cytotoxicity PODs for each tested lineage are considered for BER calculation.
# humans = conditions: ref Supplementary Data Sheet 1, cited from earlier work
# [3] = Bioactivity exposure ratio (BER): minimum platform PoD / estimated Cmax
# [4] = system: human developmental and reproductive toxicity; conditions: cited from earlier work
# [5] = system: developmental or reproductive toxicity in animal or human; conditions: cited from earlier work
# [6] = system: human induced pluripotent stem cell (hiPSC); experiment: devTOX quickPredict (ornithine/cystine ratio, cell viability); type: cell-based
# Experimental: devTOX quickPredict is a human induced pluripotent stem cell (hiPSC) -based assay that predicts the concentration at which a compound may elicit developmental toxicity. […] Assays were performed as described in [Palmer et al. (2013)] with modifications. Briefly undifferentiated hiPSCs are exposed to the compound for 48 h, with media and test article replacement every 24 h. Ornithine and […] concentrations were measured from the final 24-h treatment using Ultra-Performance Liquid Chromatography-High Resolution Mass Spectrometry (UPLC-HRMS). Cell viability was assessed after sample collection using the CellTiter-Fluor Cell Viability Assay (Promega). Dose-response analysis for the o/c ratio, cell viability, ornithine response and cystine response were performed with GraphPad Prism (version 9.1 or newer, GraphPad Software). Each data set was fit with a nonlinear model. The standard model used for analysis is a four-parameter log-logistic nonlinear model. However, the Akaike information criterion (GraphPad Prism) was used to determine if an asymmetric (five-parameter) or multiphasic nonlinear model was a better fit for the data than the four-parameter model. The developmental toxicity potential (dTP, o/c ratio) and toxicity potential (TP, cell viability) concentrations were predicted from the respective dose-response curves using the hiPSCs cell developmental toxicity threshold (dTT, 0.85).
# [7] = ref FSCJ, EFSA, SCF, JMPR as named in the cell; cited from earlier work
# [8] = human
# [9] = ref Supplementary Data Sheet 1, cited from earlier work
# [10] = cited from earlier work
# rats = conditions: ref Supplementary Data Sheet 1, cited from earlier work
# [11] = hepatic intrinsic clearance, CLint (PBK parameter); type: in vitro ADME
# [12] = renal clearance, Fup*GFR (PBK parameter); conditions: method Fup*GFR
# [13] = skin absorption / systemic exposure dose for dermal exposure (PBK parameter); type: in vitro ADME; conditions: optimised based on [11]
# Text: Where a SED (systemic exposure dose) was reported systemic exposure from a dermal administration was modelled as a slow intravenous infusion of the SED, which corrects the applied dose for the rate of skin absorption (%). Where no SED was available dermal exposure route was predicted by the dermal module in GastroPlus® administration.
# [14] = Foetus, oral, combined (retinyl palmitate, dietary retinoids)
# [15] = Non-Pregnant population, TKVF95 = p95 / weighted mean concentration-dose ratio
# [16] = Non-Pregnant, oral, combined (retinyl palmitate, dietary retinoids)
# [17] = Pregnant, oral, combined (retinyl palmitate, dietary retinoids)
# [18] = evidence of developmental or reproductive toxicity in animal or human, irrespective of exposure/dose, ref Supplementary Data Sheet 1
# [19] = two multigeneration rat studies
structure (smiles),measurement,setting,value
CC(=O)CC(c1ccccc1)c1c(O)c2ccccc2oc1=O (centres unmarked) [Warfarin],TKVF,"[1]; female, human, in vivo",1.93
same,TKVF,"[1]; female, human, in vivo, po",1.93
same,TKVF,"[1]; human, in vivo",1.82
same,TKVF,"[1]; human, in vivo, po",1.82
same,ReproTracker outcome,"[2]; at higher concentrations, not sensitive enough for a protective PoD",flags potential embryotoxicity
CC1=C(/C=C/C(C)=C/C=C/C(C)=C/CO)C(C)(C)CCC1 [Retinol],exposure above which DART effects are seen in vivo,humans,"above 3,000 μg RE/day"
same,BER,[3]; low-risk scenario of normal dietary exposure to retinol and its metabolite,< 1
same,Exposure risk (DART risk classification),"[4]; Cosmetic, 0.05% in body lotion, dermal, ref Supplementary Data Sheet 1",Low Risk
same,Exposure risk (DART risk classification),"[4]; Dietary, <10,000 IU, oral, ref Supplementary Data Sheet 1",Low Risk
same,CDR fold difference to non-pregnant,[1]; Fetus population,0.82
same,TKVF,"[1]; Fetus population, TKVF95 = p95 / weighted mean concentration-dose ratio",1.86
same,95% percentile (Conc-dose-ratio),[1]; [14],2.85
same,Fold Difference to non-pregnant,[1]; [14],0.82
same,Fold Difference to pregnant,[1]; [14],0.93
same,Mean Conc-dose -ratio,[1]; [14],1.54 uM/(mg/day]
same,TKVF,[1]; [14],1.86
same,CDR fold difference to non-pregnant,[1]; Non-Pregnant population (reference),1.00
same,TKVF,[1]; [15],2.32
same,95% percentile (Conc-dose-ratio),[1]; [16],4.34
same,Fold Difference to non-pregnant,[1]; [16],1.00
same,Mean Conc-dose -ratio,[1]; [16],1.87 uM/(mg/day]
same,TKVF,[1]; [16],2.32
same,CDR fold difference to non-pregnant,[1]; Pregnant population,0.88
same,TKVF,"[1]; Pregnant population, TKVF95 = p95 / weighted mean concentration-dose ratio",1.64
same,95% percentile (Conc-dose-ratio),[1]; [17],2.70
same,Fold Difference to non-pregnant,[1]; [17],0.88
same,Fold Difference to pregnant,[1]; [17],1.00
same,Mean Conc-dose -ratio,[1]; [17],1.65 uM/(mg/day]
same,TKVF,[1]; [17],1.64
same,DART Hazard Call,[5]; [18],Toxic
"CN(Cc1cnc2nc(N)nc(N)c2n1)c1ccc(C(=O)N[C@@H](CCC(=O)O)C(=O)O)cc1 [Methotrexate (MTX), Methotrexate]",Exposure risk (DART risk classification),"[4]; Pharmaceutical, 10 mg/weekly, oral, ref Supplementary Data Sheet 1",High Risk
same,TKVF,[1]; [15],2.74
same,TKVF,"[1]; Non-Pregnant, combined (oral, intramuscular, subcutaneous)",2.74
same,CDR fold difference to non-pregnant,"[1]; female, human, in vivo",1.11
same,TKVF,"[1]; female, human, in vivo",2.65
same,95% percentile (Conc-dose-ratio),"[1]; female, human, in vivo, sc",0.15
same,Fold Difference to non-pregnant,"[1]; female, human, in vivo, sc",1.11
same,Mean Conc-dose -ratio,"[1]; female, human, in vivo, sc",0.055 uM/(mg/day]
same,TKVF,"[1]; female, human, in vivo, sc",2.65
same,CDR fold difference to non-pregnant,"[1]; human, in vivo",1.00
same,concentration leading to effects on iPSC differentiation,"[2]; additional testing in ReproTracker, data not shown",above 0.0085 μM
same,BER from devTOX quickPredict,"[6]; PoD 0.06 μM, high-risk scenario 10 mg/weekly",~1
same,concentration at which disruption to iPSC metabolism was detected,[6]; devTOX quickPredict,0.06 µM
same,DART Hazard Call,[5]; [18],Toxic
CC(C)(C)c1ccc(CCOc2ncnc3ccccc23)cc1 [Fenazaquin],ADI,[7],ADI set by JMPR (0.05 mg/kg/day)
same,Renal Clearance,[8],0.577 L/h
same,BER,[3]; low-risk exposure scenario of the compound,< 1
same,NOAEL on which the ADI is based,"[9]; parental/systemic toxicity, not reproductive effects",No evidence of developmental or reproductive toxicity. ADI is based on the NOAEL from this study of 5 mg/kg/day but this was based on parental/systemic toxicity and not reproductive effects.
same,Exposure risk (DART risk classification),"[4]; Dietary, 3 mg/daily, oral, ref Supplementary Data Sheet 1",Low Risk
same,Aqueous Solubility,"[10]; Solubility pH 7.01, median, ref [7],[8]",0.19 µg/mL
same,DART Hazard Call,[5]; [18],Non Toxic
CC1(C)C(C=C(Cl)Cl)C1C(=O)OC(C#N)c1cccc(Oc2ccccc2)c1 (centres unmarked) [Cypermethrin],developmental NOAEL,[9]; DNT study,15 mg/kg bw per day
same,NOAEL,"rats; 15-day intact adult male rat assay, decreased body weight gain",6 mg/kg bw per day
same,reproductive NOAEL,"rats; two multigeneration rat studies, decreased survival of pups at birth",10 mg/kg bw per day
same,offspring NOAEL,rats; [19],10 mg/kg bw per day
same,parental NOAEL,rats; [19],10 mg/kg bw per day
CCOc1cc(CCC(C)=O)ccc1O [Ethylzingerone],Renal Clearance,[8],2.012 L/h
same,Exposure risk (DART risk classification),[4],Low Risk
same,Aqueous Solubility,[10]; pH 6.25,7590 µg/mL
same,DART Hazard Call,[5],Non Toxic
CCCCOC(=O)c1ccccc1C(=O)OCCCC [Dibutyl phthalate],Renal Clearance,[8],0.2 L/h
same,Intrinsic Liver Clearance,[11],1887.4 L/h
"CCCCOC(=O)c1ccccc1C(=O)OCCCC [Dibutyl phthalate (DBP), Dibutyl phthalate]",response in devTox quickPredict,[6]; at concentrations above the TDI,positive response
same,DART Hazard Call,[5],Toxic
O=C1CCC(N2C(=O)c3ccccc3C2=O)C(=O)N1 (centres unmarked) [Thalidomide],mortality at or shortly after birth,humans; infants,"Thalidomide is a powerful human teratogen, inducing a high frequency of severe and life-threatening birth defects, even after a single dose. Mortality at or shortly after birth has been reported in about 40% of infants."
same,Exposure risk (DART risk classification),"[4]; Pharmaceutical, 50 mg/daily, oral, ref Supplementary Data Sheet 1",High Risk
same,95% percentile (Conc-dose-ratio),"[1]; human, in vivo, po",0.06
same,Mean Conc-dose -ratio,"[1]; human, in vivo, po",0.036 uM/(mg/day]
same,TKVF,"[1]; human, in vivo, po",1.73
same,DART Hazard Call,[5]; [18],Toxic
Nc1ccc(NCCO)c([N+](=O)[O-])c1 [HC Red 3],Renal Clearance,[12],4.496 L/h
same,NOAEL for maternal toxicity,[9],200 mg/kg/day
same,Exposure risk (DART risk classification),[4],Low Risk
same,Diffusivity Dermis,[13],1.00E-08 cm^2/s
same,Diffusivity Stratum Corneum,[13],1.00E-08 cm^2/s
same,Diffusivity Vehicle,[13],1.00E-05 cm^2/s
same,Diffusivity Viable Epidermis,[13],1.00E-10 cm^2/s
same,Partition Coefficient Stratum Corneum/Water,[13],1.50
same,Intrinsic Liver Clearance,[11],248.1 L/h
same,DART Hazard Call,[5],Non Toxic
CCOP(=S)(OCC)Oc1nc(Cl)c(Cl)cc1Cl [Chlorpyrifos],level of the high exposure group associated with developmental neurotoxicity,"humans; prenatal exposure, cord blood biomonitoring",The high exposure CPF group (≥4.39 pg/g) was associated with developmental neurotoxicity
same,Mean Conc-dose -ratio,"[1]; Non-Pregnant, oral",0.002 uM/(mg/day]
same,DART Hazard Call,[5],Toxic
